# Where “and” joins values, the source holds several entries; their conditions need not be identical. Identical values can stand only once.
# Experiments:
# [1] = system: Primary hepatocyte cultures (human); assay: Determination of triphosphate levels in cells, human primary hepatocytes; type: in vitro ADME; conditions: general statement on the table of b531, 10 μM drug
# Procedure: Freshly isolated cells from animal and human liver were obtained in suspension on ice. Following receipt, cells were pelleted by centrifugation at 500 rpm (rat) or 700 rpm (monkey and human) and resuspended at 0.8 million cells per mL of platting medium (HPM). Multi-well collagen-coated plates (12-well) were then seeded by addition of 1 mL of cell suspention (0.8 million cells/mL). The plates were gently shaken to evenly distribute the cells and placed in an incubator at 37° C. for approximately 4 to 6 hours to allow cells to attach. Once cells have attached, the platting medium was removed and replaced with hepatocyte culture medium (HCM). Cells were left overnight in an incubator at 37° C. to acclimatize to culture and the medium.
# Hepatocyte incubations were conducted in a final volume of 1.0 mL HCM/well (0.8 million cells/mL). HCM from overnight incubation of cells was removed and replaced with fresh HCM, pre-warmed to 37° C., containing 10 μM test article from a stock solution in DMSO (final DMSO concentration was 0.1%). […]
# Cellular extracts were prepared by transferring 0.9 mL of extract into 2 mL microfuge tubes followed by centrifugation for 5 min at 14,000 rpm. Approximately 100 μL of the supernatant was transferred to HPLC vials and triphosphate levels determined by LCMS/MS as described below. […]
# [2] = system: Primary hepatocytes (Rat); assay: In vitro phosphorylation in hepatocytes (LddA-TP formation), rat; type: in vitro ADME
# Procedure: (§1) Measurements of the concentration of 2′-3′-dideoxyadenosine-5′-triphosphate (ddATP) (the triphosphate nucleotide of 2′-3′-dideoxyadenosine (ddA) are performed by liquid chromatography tandem mass spectrometry (LC/MS/MS), e.g., of methanolic extracts of hepatocytes.
# (§2) The concentration of ddATP is measured by comparison to a standard curve. Working stock solutions of TP-ddA are prepared from a […] stock solution in de-ionized water of ddATP (tetrasodium salt of >91% purity) purchased from Sigma Chemical Co as follows:
# (§3) HPLC is conducted on Phenomenex Luna Amino 3 μm 100 A, 30×2 mm column, with a mobile phase: A: 70% 10 mM NH4OAc 30% ACN pH 6.0; and B: 70% 1 mM NH4OAc 30% ACN pH 10.5 as follows:
# (§4) Primary hepatocytes (Rat, Cynomolgus Monkey or human) were seeded at 0.8×10^6 in a collagen-coated 12-well plate and allowed to attach 4-6 hours after which time the seeding medium was replaced with serum-free culture medium and cells allowed to acclimatize to the new medium overnight. On the next day, cells were exposed for 1, 4, 8 and 24 hours to test article A550 (NM204) at 10 and 50 μM prepared in fresh culture medium from stock solution in DMSO (final DMSO concentration was 0.1%). At each time point, an aliquot (500 μl) was collected and immediately added to 500 μl of acetonitrile and stored at −20° C. until analysis. The remaining exposure medium was removed and the cell monolayer (stuck to dish) washed 2 times with ice-cold PBS. Any remaining PBS was carefully removed by aspiration and cells were harvested by scraping in 1 mL 70% ice-cold methanol. Cell samples were placed overnight at −20° C. and cellular debris removed by centrifugation on the next day. The supernatants were removed and filtered prior to analysis by LC/MS. A standard curve was prepared by using untreated cells processed similarly except that prior to harvesting in 70% methanol, 10 μl of LddATP standard solutions prepared in methanol were added to the washed monolayers. These control samples were then processed and analyzed as described for test samples.
# [3] = system: Primary hepatocytes (Cynomolgus Monkey); assay: In vitro phosphorylation in hepatocytes (LddA-TP formation), monkey; type: in vitro ADME
# Procedure: as §1, §2, §3, §4
# [4] = system: Primary hepatocytes (human); assay: In vitro phosphorylation in hepatocytes (LddA-TP formation), human; type: in vitro ADME
# Procedure: as §1, §2, §3, §4
# [5] = In vivo studies in rat: A550 and LddATP measured in livers after IV or oral dose; conditions: male rat liver
# Procedure: Distribution of A550 (NM-204) (the compound of Example 1 (Hydroxy-tBuSATE N-benzylphosphoroamidate derivative of L-ddA) in the rat liver was evaluated following a single intravenous (I.V.) or oral administration of A550 (NM-204) at a dose of 20 (oral) or 10 (I.V.) mg/Kg body weight. The dose solutions were prepared on the same day prior to dose administration.
# At the specified time point (1 and 3 hours for IV animals or 1, 3 and 8 hours for oral animals), each animal was euthanized by CO2 gas followed by exsanguination via the abdominal vein. Livers were collected immediately after sacrifice, flash frozen in liquid nitrogen, placed on dry ice, and later stored at −70° C., before being analyzed.
# Control rat liver samples were taken from whole frozen livers (Bioreclamation, Inc. Hicksville, N.Y.) with the aid of a tissue coring utensil (Harris Unicore, 8.0 mm, VWR). Each ˜0.1 g sample was placed in individual 2 mL poly vials with 0.940 mL of 80% MeOH/20% DIH2O and homogenates were prepared using a mechanical tissue disruptor (Tissue Master, Omni-International, Inc, Marietta Ga.). The vials received a 10 μl aliquot of a working stock solution and a 50 μl aliquot of the ISTD before vortexing for ˜30 sec. The mixtures were stored overnight at −20° C. and the next day were removed for 10 min of centrifugation in a benchtop centrifuge. Each supernatant was transferred to individual centrifugation filtration units (0.45 μm) and the resulting filtrates were transferred to HPLC vials for the LC/MS/MS analysis. The final concentrations of ddATP in the calibration standards was 1000, 500, 250, 125, 50, and 0 pmol/ml. Each calibration standard was directly injected in a 50 μL volume onto the ion-exchange column for analysis. Standard curve analysis of calibration standards from control liver extracts was conducted.
# Analysis of ddATP was done by an ion-exchange chromatography method with on-line positive ionization ESI-MS/MS detection in multiple reaction monitoring (MRM) detection mode. […] This is equivalent to a range of […] per gram liver by the sample preparation employed. The HPLC MS MS conditions described in Example 5 were utilized.
# [6] = IV dose 10 mg/kg, 1 hr, individual animals, 10 mg/kg
# [7] = IV dose 10 mg/kg, 3 hrs, individual animals, 10 mg/kg
# [8] = Oral dose 20 mg/kg, 1 hr, individual animals, 20 mg/kg
# [9] = Oral dose 20 mg/kg, 3 hrs, Mean
# [10] = Oral dose 20 mg/kg, 3 hrs, individual animals, 20 mg/kg
# [11] = Oral dose 20 mg/kg, 8 hrs, Mean
# [12] = Oral dose 20 mg/kg, 8 hrs, individual animals, 20 mg/kg
compound,measurement,setting,value
"CC(C)(CO)C(=O)SCCOP(=O)(NCc1ccccc1)OC[C@H]1O[C@@H](n2ccc(N)nc2=O)[C@](C)(O)[C@@H]1O (mixture of isomers) [Example B102, Hydroxy-tBuSATE N-Benzylphosphoroamidate Derivative of 2′-C-methylcytidine]",levels of intracellular triphosphate as compared to those for NM107,[1],much higher
Hydroxy-tBuSATE N-benzylphosphoroamidate derivative of L-ddA [Example A550],LddA TP Levels,"[2]; 10 μM, 1 hour",159.5 pmol/million cells
same,LddA TP Levels,"[2]; 10 μM, 4 hours",388.0 pmol/million cells
same,LddA TP Levels,"[2]; 10 μM, 8 hours",468.5 pmol/million cells
same,LddA TP Levels,"[2]; 10 μM, 24 hours",422.0 pmol/million cells
same,LddA TP Levels,"[2]; 50 μM, 1 hour",393.0 pmol/million cells
same,LddA TP Levels,"[2]; 50 μM, 4 hours",1212.0 pmol/million cells
same,LddA TP Levels,"[2]; 50 μM, 8 hours",1590.0 pmol/million cells
same,LddA TP Levels,"[2]; 50 μM, 24 hours",1505.0 pmol/million cells
same,LddA TP Levels,"[3]; 10 μM, 1 hour",287.5 pmol/million cells
same,LddA TP Levels,"[3]; 10 μM, 4 hours",978.0 pmol/million cells
same,LddA TP Levels,"[3]; 10 μM, 8 hours",1230.0 pmol/million cells
same,LddA TP Levels,"[3]; 10 μM, 24 hours",344.0 pmol/million cells
same,LddA TP Levels,"[3]; 50 μM, 1 hour",2085.0 pmol/million cells
same,LddA TP Levels,"[3]; 50 μM, 4 hours",5690.0 pmol/million cells
same,LddA TP Levels,"[3]; 50 μM, 8 hours",6030.0 pmol/million cells
same,LddA TP Levels,"[3]; 50 μM, 24 hours",3030.0 pmol/million cells
same,LddA TP Levels,"[4]; 10 μM, 1 hour",161.5 pmol/million cells
same,LddA TP Levels,"[4]; 10 μM, 4 hours",312.5 pmol/million cells
same,LddA TP Levels,"[4]; 10 μM, 8 hours",352.5 pmol/million cells
same,LddA TP Levels,"[4]; 10 μM, 24 hours",366.0 pmol/million cells
same,LddA TP Levels,"[4]; 50 μM, 1 hour",682.5 pmol/million cells
same,LddA TP Levels,"[4]; 50 μM, 4 hours",1480.0 pmol/million cells
same,LddA TP Levels,"[4]; 50 μM, 8 hours",1930.0 pmol/million cells
same,LddA TP Levels,"[4]; 50 μM, 24 hours",2062.5 pmol/million cells
same,Concentration Compound (Ex 1),"[5]; IV dose 10 mg/kg, 1 hr, Mean",80.0 pmol/g liver
same,Concentration. ddA-TP,"[5]; IV dose 10 mg/kg, 1 hr, Mean",1770 pmol/g liver
same,Concentration. ddA-TP,"[5]; IV dose 10 mg/kg, 1 hr, Mean, via hepatocellularity number",15.5 pmol/10^6 cells
same,Concentration Compound (Ex 1),[5]; [6],85.1 pmol/g liver and 65.8 pmol/g liver and 89.1 pmol/g liver
same,Concentration. ddA-TP,[5]; [6],1355 pmol/g liver and 2025 pmol/g liver and 1930 pmol/g liver
same,Concentration. ddA-TP,"[5]; IV dose 10 mg/kg, 1 hr, individual animals, via hepatocellularity number, 10 mg/kg",11.9 pmol/10^6 cells and 17.8 pmol/10^6 cells and 16.9 pmol/10^6 cells
same,Concentration Compound (Ex 1),"[5]; IV dose 10 mg/kg, 3 hrs, Mean",27.9 pmol/g liver
same,Concentration. ddA-TP,"[5]; IV dose 10 mg/kg, 3 hrs, Mean",2092 pmol/g liver
same,Concentration. ddA-TP,"[5]; IV dose 10 mg/kg, 3 hrs, Mean, via hepatocellularity number",18.3 pmol/10^6 cells
same,Concentration Compound (Ex 1),[5]; [7],28.3 pmol/g liver and 26.0 pmol/g liver and 29.3 pmol/g liver
same,Concentration. ddA-TP,[5]; [7],1345 pmol/g liver and 1940 pmol/g liver and 2990 pmol/g liver
same,Concentration. ddA-TP,"[5]; IV dose 10 mg/kg, 3 hrs, individual animals, via hepatocellularity number, 10 mg/kg",11.8 pmol/10^6 cells and 17.0 pmol/10^6 cells and 26.2 pmol/10^6 cells
same,Concentration Compound (Ex 1),"[5]; Oral dose 20 mg/kg, 1 hr, Mean",251 pmol/g liver
same,Concentration. ddA-TP,"[5]; Oral dose 20 mg/kg, 1 hr, Mean",395 pmol/g liver
same,Concentration. ddA-TP,"[5]; Oral dose 20 mg/kg, 1 hr, Mean, via hepatocellularity number",3.5 pmol/10^6 cells
same,Concentration Compound (Ex 1),[5]; [8],411 pmol/g liver and 272 pmol/g liver and 70.2 pmol/g liver
same,Concentration. ddA-TP,[5]; [8],210 pmol/g liver and 575 pmol/g liver and 400 pmol/g liver
same,Concentration. ddA-TP,"[5]; Oral dose 20 mg/kg, 1 hr, individual animals, via hepatocellularity number, 20 mg/kg",1.8 pmol/10^6 cells and 5.0 pmol/10^6 cells and 3.5 pmol/10^6 cells
same,Concentration Compound (Ex 1),[5]; [9],204 pmol/g liver
same,Concentration. ddA-TP,[5]; [9],312 pmol/g liver
same,Concentration. ddA-TP,"[5]; Oral dose 20 mg/kg, 3 hrs, Mean, via hepatocellularity number",2.7 pmol/10^6 cells
same,Concentration Compound (Ex 1),[5]; [10],360 pmol/g liver and 92.1 pmol/g liver and 161 pmol/g liver
same,Concentration. ddA-TP,[5]; [10],200 pmol/g liver and 330 pmol/g liver and 405 pmol/g liver
same,Concentration. ddA-TP,"[5]; Oral dose 20 mg/kg, 3 hrs, individual animals, via hepatocellularity number, 20 mg/kg",1.8 pmol/10^6 cells and 2.9 pmol/10^6 cells and 3.6 pmol/10^6 cells
same,Concentration Compound (Ex 1),[5]; [11],20.1 pmol/g liver
same,Concentration. ddA-TP,[5]; [11],382 pmol/g liver
same,Concentration. ddA-TP,"[5]; Oral dose 20 mg/kg, 8 hrs, Mean, via hepatocellularity number",3.3 pmol/10^6 cells
same,Concentration Compound (Ex 1),[5]; [12],16.4 pmol/g liver and 28 pmol/g liver and 16.2 pmol/g liver
same,Concentration. ddA-TP,[5]; [12],280 pmol/g liver and 805 pmol/g liver and 275 pmol/g liver
same,Concentration. ddA-TP,"[5]; Oral dose 20 mg/kg, 8 hrs, individual animals, via hepatocellularity number, 20 mg/kg",2.5 pmol/10^6 cells and 5.2 pmol/10^6 cells and 2.4 pmol/10^6 cells

# From US20080261913A1, “Compounds and pharmaceutical compositions for the treatment of liver disorders” (Idenix Pharmaceuticals, Inc., priority 2006, published 2008)
